Test system: HMLE_sh_eGFP viability, CellTiter-Glo luminescence, 72 h
Experiment: cytotoxicity in HMLE control line with eGFP shRNA, dose response, counter-screen for HMLE_sh_ECad selective toxicity project, cell-based, HMLE_sh_eGFP, luminescence (AID 463074);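 further: counterscreen control line to flag general toxicity for the HMLE_sh_ECad screen; potency for loss of viability as luminescence drops below DMSO wells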

SMILES	AC50 [µM]
Cc1ccc(-n2nc(C)c3c(C)c(CCC(=O)Nc4ccc(CN5CCCC5)cc4)c(C)nc32)cc1	3.79
Fc1cccc(-c2cc3nc4c(c(NCc5ccco5)n3n2)CCCC4)c1	7.77
O=C(CCSc1ccc(Cl)cc1)N1CCN(c2ccc(O)cc2)CC1	1.48
O=C1c2ccccc2NC(c2ccc(-c3cccc(Cl)c3)o2)N1O (centres undefined)	4.85
O=C(CC1Nc2ccccc2NC1=O)Nc1ccccc1 (centres undefined)	1.04
NC1=NC[C@@H](CC2CCCCC2)N1CCc1cc(C(F)(F)F)cc(C(F)(F)F)c1	2.74
COc1ccc(NC(=O)c2c(N)no[n+]2[O-])cc1	1.34
C=C(C)COc1ccc(-c2[nH]ncc2-c2ccc(OC)c(OC)c2)c(O)c1	4.5
O=C(c1ccccc1)c1nn(-c2ccc(Cl)cc2)c(=O)cc1C(F)(F)F	3.68
C[C@@H]1CC[C@]2(C(=O)O)CC[C@]3(C)C(=CCC4[C@]56CC[C@@](O)(OC5)C(C)(C)C6CC[C@]43C)C2[C@H]1C (some centres undefined)	6.19
O=[N+]([O-])c1c(NCCCO)cc(Sc2ccc(Cl)cc2)c2nonc12	4.89
COc1cc(NS(=O)(=O)c2ccc(N/C=C(\C#N)c3nc4cc(Cl)ccc4o3)cc2)nc(OC)n1	7.54
O=C(Nc1ccc(-c2csc(Nc3ccc(Cl)cc3)n2)cc1)c1cc([N+](=O)[O-])cc(C(F)(F)F)c1	3.08
C[C@H]1CN([C@@H](C)CO)C(=O)Cc2cc(NC(=O)CCC(F)(F)F)ccc2O[C@H]1CN(C)Cc1ccc(-c2ccccc2)cc1	6.9
O=C(N[C@H]1C/C=C\C[C@@H](CC(=O)N(CCO)Cc2ccccc2)C(=O)NC[C@H](c2ccccc2)OC1=O)OCC1c2ccccc2-c2ccccc21	2.41
COC(=O)C1=C(C)N(Cc2ccccc2)C(=NCc2cccc(Cl)c2)N[C@H]1c1ccccc1	7.17
CC[C@H](CO)Nc1nc(Nc2cccc(Cl)c2)c2ncn(C(C)C)c2n1	6.74
O=Cc1cc2ccccc2nc1SCc1ccc(Cl)cc1	5.69
Cc1sc2ncnc(N3CCN(CCOc4ccc(Cl)cc4)CC3)c2c1C	7.16
O=[N+]([O-])c1cc(S(=O)(=O)C(F)(F)F)ccc1Sc1nc2ccccc2[nH]1	4.46

SMILES	AC50 [µM]
O=c1[nH]c(/C(Cl)=C/c2cc(Cl)ccc2O)nc2cc(Cl)ccc12	2.37
Cc1cc(-c2ccccc2)nc(N/N=C/c2ccc(O)cc2O)n1	7.96
COc1cc(OC)cc(-c2cc3ccc(OC)cc3cn2)c1	5.43
O=C(c1ccc(CSc2ccccc2)cc1)N1CCN(c2ccccc2)CC1	9.49
O=c1cc(N2CCCCC2)c(-c2ccccc2)nn1Cc1ccc(Cl)cc1Cl	3.96
Cc1cccc(C)c1OCc1cc(C(=O)N2CC3C[C@@H]4CC2C[C@H](C3)C4)no1	2.69
Cn1cc([N+](=O)[O-])c(C(=O)Nc2ccc(-c3nc4ccccc4o3)cc2)n1	2.33
Cc1ccc(NC(=O)Cn2c(O)c(N=NC(=O)c3cc4ccccc4cc3O)c3ccccc32)cc1	3.92
CC(=O)c1ccc(-c2ccc([C@H]3[C@H]4C=CC[C@@H](C)[C@@H]4C(=O)N3Cc3ccccc3)c(F)c2)cc1	6.13
CCC1=NN(C(=O)c2cccc(Br)c2)C(O)(c2ccc(Br)cc2)C1 (centres undefined)	1.37
CC1CCCN(CCCNC(=O)c2cc3c(Cl)nc4ccccc4c3s2)C1 (centres undefined)	8.14
O=C(N/N=C/c1cc([N+](=O)[O-])ccc1O)c1c[nH]c2ccccc12	16.5
COc1ccc(/C=C/C(=O)c2c(O)n(CCC3=CCCCC3)c(=O)[nH]c2=O)cc1	3.33
Cc1ccc(-c2csc(NCCn3c(-c4ccncc4)nc4cc(C(F)(F)F)ccc43)n2)cc1	10.7
CCCCCCCCOC(=O)C1=C(C)Nc2nnnn2C1c1cccs1 (centres undefined)	6.86
COc1cc(/C=C/c2ccc3cccc(OC)c3n2)c(OC(C)=O)c([N+](=O)[O-])c1	16.2
Cc1oc(CC(C)C)cc1C(=O)Nc1cccc2ccccc12	5.98
CC(C)(C)c1cc(-c2nc(N)nc(N)n2)c(O)c(C(C)(C)C)c1	3.57
Cc1nc(NC(=O)c2ccco2)sc1-c1csc(Nc2ccc(Cl)cc2)n1	2.54

From PubChem BioAssay AID463074 (Broad Institute, 2010)
